In US20240238398A1, “IMMUNOGENIC COMPOSITION” (GRIFFITH UNIVERSITY, priority 2021, published 2024):

Key:
[1] = test system: B. microti; assay: In vivo assessment of chemically attenuated B. microti pRBCs in BALB/c mice; conditions: intravenous inoculation
Method: FIG. 1: In vivo assessment of chemically attenuated B. microti pRBCs. A and B. To assess attenuation of B. microti parasitized red blood cells (pRBCs), BALB/c mice (n=5/group) were injected intravenously with 10^6 pRBCs treated with 2 μM, 200 nM or 20 nM of Tafuramycin-A (TF-A). Control mice received 10^6 untreated pRBCs. C and D. The impact of parasite dose on protection induced by a chemically attenuated whole parasite B. microti vaccine. BALB/c mice (n=5/group) were immunized intravenously on days 0, 14 and 28 with 10^4, 10^5 or 10^6 B. microti parasitized red blood cells (pRBCs) that were chemically attenuated with 2 μM of Tafuramycin-A (TF-A). Control mice received 10^6 TF-A treated normal mouse red blood cells (mRBCs). Mice were challenged with 10^6 B. microti pRBCs two weeks after the final immunization. (A and C: Parasitemias were monitored by microscopy post challenge. B and D: Mice were assessed for signs of disease and were scored based on defined criteria listed on a clinical scoresheet. Data are expressed as mean±SEM). […]
Chemical attenuation of B. microti with Tafuramycin-A (TF-A) was conducted as described previously (Good et al., 2013). […] A cell count was performed using a haemocytometer, the immunizing dose calculated, and the blood was resuspended in the required volume of PBS for injection. […]

[2] = test system: B. microti; assay: Assessment of chemically attenuated B. microti pRBCs in SCID mice; type: in vivo; conditions: 10^6 B. microti pRBCs treated with 2 μM TF-A, intravenous, immunodeficient SCID mice
Method: FIG. 5: Assessment of chemically attenuated B. microti pRBCs in BALB/c and SCID mice. Related to FIGS. 1 and 2. BALB/c and SCID mice (n=5/group) were injected intravenously with 10^6 B. microti parasitized red blood cells (pRBCs) that were chemically attenuated with 2 μM of Tafuramycin-A (TF-A). Control mice received pRBCs that were not treated with TF-A. A. Parasitemia was monitored by microscopy post challenge. B. Mice were assessed for signs of disease and were scored based on defined criteria listed on a clinical scoresheet. Data are expressed as mean±SEM.
Chemical attenuation of B. microti with Tafuramycin-A (TF-A) was conducted as described previously (Good et al., 2013). Blood from mice infected with B. microti (as a source of pRBCs) and from naïve mice (as a source of mRBCs) were collected into EDTA tubes. TF-A was diluted to a 20 μM final concentration in RPMI-1640 with glutamine and added to a 25 cm^2 vented tissue culture flask to give a final TF-A concentration of 2 μM, 200 nM or 20 nM as required. One hundred microlitres of blood containing B. microti pRBCs or mRBCs was added into each flask, as required. […] A cell count was performed using a haemocytometer, the immunizing dose calculated, and the blood was resuspended in the required volume of PBS for injection. […]

Structure (SMILES): COc1cc2cc(C(=O)N3CC(CCl)c4c3cc(O)c3ccoc43)[nH]c2c(OC)c1OC (stereo not shown) [TF-A, seco-iso-cyclopropylfurano[2,3-e]indoline-TMI]
- microscopically patent parasitemia and clinical signs of infection ([1]; 10^6 B. microti pRBCs attenuated with 200 nM TF-A): did not develop microscopically patent parasitemia nor clinical signs of infection
- microscopically patent parasitemia and clinical signs of infection ([1]; 10^6 B. microti pRBCs attenuated with 2 μM TF-A): did not develop microscopically patent parasitemia nor clinical signs of infection
- signs of clinical disease [2]: remained without signs of clinical disease
- time microscopically clear of parasites [2]: 70 days
